Results: patent publication US20230264009A1, “DISINFECTING CAP KIT FOR LUER ACCESS DEVICES” (SterileCare Inc., priority 2022, published 2023)

Tests used:
S. epidermidis SK9 = assay: MBC/MFC determination; assay type: cell-based, Staphylococcus epidermidis; settings: alone
Experimental: (§1) An assay was made using a minimum inhibitory concentration (MIC) and minimum bactericidal concentration (MBC) and minimum fungicidal concentration (MFC) determination. The MIC was determined by the micro broth dilution method in 96-well plates. Serial two-fold dilutions of tetrasodium EDTA (from 2% to 0.015%), ethanol (from 50% to 0.1%) and chlorhexidine HCl (from 100 µg/mL to 0.025 µg/mL) were prepared in MH broth with a final volume of 90 µL per well. A 10 µL containing 1 × 10^5 bacterial cells or 2 × 10^3 fungal cells were added to each well. The inoculated plates were covered with a lid, sealed with Parafilm, and incubated for 24 h at 37° C. with slight rocking on a tilting platform shaker. After incubation, the optical density at 600 nm (OD 600 ) of the cultures in each well was measured using an xMark™ Microplate Absorbance Spectrophotometer (Bio-Rad). […] MBCs and MFCs were determined by transferring 100 µL from each well with no apparent growth onto appropriate agar plates, followed by incubation for 24 h at 37° C.

[1] = tested on: Pseudomonas aeruginosa SK1; assay: Checkerboard titration, FMCI; assay type: cell-based; settings: P. aeruginosa SK1
Experimental: as §1
(§2) A fourth composition and solution included tetrasodium EDTA with ethanol or chlorhexidine HCl. This fourth composition and solution were created using checkerboard titration methods using micro broth dilution in 96-well microtiter plates. The concentrations of antimicrobials used were based on previously determined MIC values. Briefly, 200 µL of two-fold dilutions of tetrasodium EDTA and ethanol or chlorhexidine HCl were prepared in MH or MH II broth with standardized cell suspension. […] Microtiter plates were incubated at 37° C. for 24 h, and the results were analyzed. Each test was performed in duplicate and included a growth control without adding any antimicrobials.

Serratia marcescens SK2 [2] = assay: Checkerboard titration, FMCI; assay type: cell-based; settings: S. marcescens SK2
Experimental: as §1, §2

[3] = tested on: Stenotrophomonas maltophilia ON17; assay: Checkerboard titration, FMCI; assay type: cell-based; settings: S. maltophilia ON17
Experimental: as §1, §2

Candida albicans SK4b [4] = assay: Checkerboard titration, FMCI; assay type: cell-based; settings: C. albicans SK4b
Experimental: as §1, §2

[5] = tested on: Staphylococcus aureus ON89; assay: Checkerboard titration, FMCI; assay type: cell-based; settings: S. aureus ON89
Experimental: as §1, §2

[6] = tested on: Staphylococcus epidermidis ON170; assay: Checkerboard titration, FMCI; assay type: cell-based; settings: S. epidermidis ON170
Experimental: as §1, §2

Proteus mirabilis ON153 [7] = assay: Checkerboard titration, FMCI; assay type: cell-based; settings: P. mirabilis ON153
Experimental: as §1, §2

Escherichia coli ON29 [8] = assay: Checkerboard titration, FMCI; assay type: cell-based; settings: E. coli ON29
Experimental: as §1, §2

[9] = tested on: Pseudomonas aeruginosa SK1; assay: Checkerboard titration, FICI; assay type: cell-based; settings: P. aeruginosa SK1
Experimental: as §2

Serratia marcescens SK2 [10] = assay: Checkerboard titration, FICI; assay type: cell-based; settings: S. marcescens SK2
Experimental: as §2

[11] = tested on: Stenotrophomonas maltophilia ON17; assay: Checkerboard titration, FICI; assay type: cell-based; settings: S. maltophilia ON17
Experimental: as §2

Candida albicans SK4b [12] = assay: Checkerboard titration, FICI; assay type: cell-based; settings: C. albicans SK4b
Experimental: as §2

[13] = tested on: Staphylococcus aureus ON89; assay: Checkerboard titration, FICI; assay type: cell-based; settings: S. aureus ON89
Experimental: as §2

[14] = tested on: Staphylococcus epidermidis ON170; assay: Checkerboard titration, FICI; assay type: cell-based; settings: S. epidermidis ON170
Experimental: as §2

Proteus mirabilis ON153 [15] = assay: Checkerboard titration, FICI; assay type: cell-based; settings: P. mirabilis ON153
Experimental: as §2

Escherichia coli ON29 [16] = assay: Checkerboard titration, FICI; assay type: cell-based; settings: E. coli ON29
Experimental: as §2

[17] = tested on: Staphylococcus epidermidis SK9 biofilm; assay: FBEC index, checkerboard dilution on biofilms; assay type: cell-based; settings: S. epidermidis SK9 biofilm
Experimental: In step (4), microtiter plates are incubated at 37° C. for 24 h. then (6), after incubation, the bacterial and fungal cells were dislodged from the pegs into the recovery medium described above.
Three 10-µL aliquots, for a total of 30 µL from each well of recovery medium, were spotted on MH agar plates and incubated for 24 h at 37° C. […] The FBEC determination is a modification of the FICI.

[18] = tested on: Pseudomonas aeruginosa SK1; assay: MIC, micro broth dilution; assay type: cell-based; settings: alone; P. aeruginosa SK1; 24 h
Experimental: as §1

Serratia marcescens SK2 [19] = assay: MIC, micro broth dilution; assay type: cell-based; settings: alone; S. marcescens SK2; 24 h
Experimental: as §1

[20] = tested on: Stenotrophomonas maltophilia ON17; assay: MIC, micro broth dilution; assay type: cell-based; settings: alone; S. maltophilia ON17; 24 h
Experimental: as §1

Candida albicans SK4b [21] = assay: MIC, micro broth dilution; assay type: cell-based; settings: alone; C. albicans SK4b; 24 h
Experimental: as §1

[22] = tested on: Staphylococcus aureus ON89; assay: MIC, micro broth dilution; assay type: cell-based; settings: alone; S. aureus ON89; 24 h
Experimental: as §1

[23] = tested on: Staphylococcus epidermidis ON170; assay: MIC, micro broth dilution; assay type: cell-based; settings: alone; S. epidermidis ON170; 24 h
Experimental: as §1

Proteus mirabilis ON153 [24] = assay: MIC, micro broth dilution; assay type: cell-based; settings: alone; P. mirabilis ON153; 24 h
Experimental: as §1

Escherichia coli ON29 [25] = assay: MIC, micro broth dilution; assay type: cell-based; settings: alone; E. coli ON29; 24 h
Experimental: as §1

C. albicans ON47 [26] = assay: Checkerboard titration, FICI; assay type: cell-based, Candida albicans
Experimental: as §2

C. albicans ON47 [27] = assay: Checkerboard titration, FMCI; assay type: cell-based, Candida albicans
Experimental: as §1, §2

[28] = tetrasodium EDTA + chlorhexidine HCl

O=C([O-])CN(CCN(CC(=O)[O-])CC(=O)[O-])CC(=O)[O-].[Na+].[Na+].[Na+].[Na+] [EDTA, tetrasodium EDTA]
MBC/MFC (S. epidermidis SK9): 0.5 % w/v
Concentration in combination giving FMCI [1, 28]: 0.031 % w/v
Concentration in combination giving FMCI ([1]; tetrasodium EDTA + ethanol): 0.031 % w/v
Concentration in combination giving FMCI (Serratia marcescens SK2 [2]; [28]): 0.125 % w/v
Concentration in combination giving FMCI (Serratia marcescens SK2 [2]; tetrasodium EDTA + ethanol): 0.25 % w/v
Concentration in combination giving FMCI [3, 28]: 0.031 % w/v
Concentration in combination giving FMCI ([3]; tetrasodium EDTA + ethanol): 0.125 % w/v
Concentration in combination giving FMCI (Candida albicans SK4b [4]; [28]): 0.125 % w/v
Concentration in combination giving FMCI (Candida albicans SK4b [4]; tetrasodium EDTA + ethanol): 0.25 % w/v
Concentration in combination giving FMCI [5, 28]: 0.008 % w/v
Concentration in combination giving FMCI ([5]; tetrasodium EDTA + ethanol): 0.25 % w/v
Concentration in combination giving FMCI [6, 28]: 0.25 % w/v
Concentration in combination giving FMCI ([6]; tetrasodium EDTA + ethanol): 0.031 % w/v
Concentration in combination giving FMCI (Proteus mirabilis ON153 [7]; [28]): 0.125 % w/v
Concentration in combination giving FMCI (Proteus mirabilis ON153 [7]; tetrasodium EDTA + ethanol): 0.063 % w/v
Concentration in combination giving FMCI (Escherichia coli ON29 [8]; [28]): 0.008 % w/v
Concentration in combination giving FMCI (Escherichia coli ON29 [8]; tetrasodium EDTA + ethanol): 0.25 % w/v
Concentration in combination giving FICI [9, 28]: 0.5 % w/v
Concentration in combination giving FICI ([9]; tetrasodium EDTA + ethanol): 0.031 % w/v
Concentration in combination giving FICI (Serratia marcescens SK2 [10]; [28]): 0.063 % w/v
Concentration in combination giving FICI (Serratia marcescens SK2 [10]; tetrasodium EDTA + ethanol): 0.5 % w/v
Concentration in combination giving FICI [11, 28]: 0.015 % w/v
Concentration in combination giving FICI ([11]; tetrasodium EDTA + ethanol): 0.031 % w/v
Concentration in combination giving FICI (Candida albicans SK4b [12]; [28]): 0.063 % w/v
Concentration in combination giving FICI (Candida albicans SK4b [12]; tetrasodium EDTA + ethanol): 0.25 % w/v
Concentration in combination giving FICI [13, 28]: 0.008 % w/v
Concentration in combination giving FICI ([13]; tetrasodium EDTA + ethanol): 0.015 % w/v
Concentration in combination giving FICI [14, 28]: 0.063 % w/v
Concentration in combination giving FICI ([14]; tetrasodium EDTA + ethanol): 0.015 % w/v
Concentration in combination giving FICI (Proteus mirabilis ON153 [15]; [28]): 0.063 % w/v
Concentration in combination giving FICI (Proteus mirabilis ON153 [15]; tetrasodium EDTA + ethanol): 0.5 % w/v
Concentration in combination giving FICI (Escherichia coli ON29 [16]; [28]): 0.008 % w/v
Concentration in combination giving FICI (Escherichia coli ON29 [16]; tetrasodium EDTA + ethanol): 0.25 % w/v
FBEC (concentration in combination) [17, 28]: 0.125 % w/v
FBEC (concentration in combination) ([17]; tetrasodium EDTA + ethanol): 0.031 % w/v
MIC [18]: 0.25 % w/v
MIC (Serratia marcescens SK2 [19]): 2 % w/v
MIC [20]: 0.063 % w/v
MIC (Candida albicans SK4b [21]): 1 % w/v
MIC [22]: 0.063 % w/v
MIC [23]: 0.063 % w/v
MIC (Proteus mirabilis ON153 [24]): 1 % w/v
MIC (Escherichia coli ON29 [25]): 0.5 % w/v
Concentration in combination giving FICI (C. albicans ON47 [26]; [28]): 0.125 % w/v
Concentration in combination giving FICI (C. albicans ON47 [26]; tetrasodium EDTA + ethanol): 0.25 % w/v
Concentration in combination giving FMCI (C. albicans ON47 [27]; [28]): 0.031 % w/v
Concentration in combination giving FMCI (C. albicans ON47 [27]; tetrasodium EDTA + ethanol): 0.25 % w/v
